The source made the active and inactive calls. No cut-off for these calls is given here.
Tests used:
MDA-MB-468 [1] = experiment: Antiproliferative activity against human MDA-MB-468 cells assessed as cell growth at 10 uM incubated for 72 hrs by SRB assay relative to control; format: functional; details: read-out: Activity
T47D [2] = experiment: Growth inhibition of human T47D cells incubated for 72 hrs by SRB assay; format: functional
MCF7 [3] = experiment: Antiproliferative activity against human MCF7 cells assessed as cell growth at 10 uM incubated for 72 hrs by SRB assay relative to control; format: functional; details: read-out: Activity
MCF7 [4] = experiment: Growth inhibition of human MCF7 cells incubated for 72 hrs by SRB assay; format: functional
MDA-MB-468 [5] = experiment: Growth inhibition of human MDA-MB-468 cells incubated for 72 hrs by SRB assay; format: functional
Aurora kinase B [6] = molecular target: T1, Aurora kinase B (Homo sapiens, UniProt Q96GD4); experiment: Inhibition of Aurora B (unknown origin) at 100 nM by Z-LYTE assay relative to control
T1 sequence (Q96GD4 whole entry): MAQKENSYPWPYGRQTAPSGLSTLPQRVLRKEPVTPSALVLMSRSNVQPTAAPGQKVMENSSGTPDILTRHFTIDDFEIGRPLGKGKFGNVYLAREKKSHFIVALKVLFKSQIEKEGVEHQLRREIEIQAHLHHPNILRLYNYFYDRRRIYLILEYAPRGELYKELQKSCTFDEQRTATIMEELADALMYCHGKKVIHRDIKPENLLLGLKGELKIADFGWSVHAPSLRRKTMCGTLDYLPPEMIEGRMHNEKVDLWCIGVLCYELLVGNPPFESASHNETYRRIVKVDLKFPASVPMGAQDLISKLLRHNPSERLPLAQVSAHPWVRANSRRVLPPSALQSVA

T47D [7] = experiment: Antiproliferative activity against human T47D cells assessed as cell growth at 10 uM incubated for 72 hrs by SRB assay relative to control; format: functional; details: read-out: Activity
Aurora kinase B [8] = molecular target: T1, Aurora kinase B; experiment: Inhibition of Aurora B (unknown origin) at 100 nM relative to control
Aurora kinase B [9] = molecular target: T1, Aurora kinase B; experiment: Binding affinity to Aurora B (unknown origin) assessed as inhibition constant
Aurora kinase B [10] = molecular target: T1, Aurora kinase B; experiment: Inhibition of Aurora B (unknown origin)
MCF7 [11] = experiment: Inhibition of mitochondrial respiration in human MCF7 cells assessed as reduction in oxygen consumption rate at 20 uM incubated for 15 mins; format: functional, cell-based
MCF7 [12] = experiment: Inhibition of mitochondrial respiration in human MCF7 cells assessed as reduction in oxygen consumption rate at 20 uM incubated for 15 mins in presence of complex I; format: functional, cell-based
H9c2 = experiment: Cytotoxicity against rat H9c2 cells at upto 100 uM measured after 72 hrs by SRB assay; format: toxicity, cell-based; details: h9c2, 72 h
MCF7 [13] = experiment: Inhibition of mitochondrial respiration in human MCF7 cells assessed as reduction in oxygen consumption rate at 20 uM incubated for 15 mins in presence of complex IV; format: functional, cell-based
BNL = experiment: Cytotoxicity against mouse BNL cells at upto 100 uM measured after 72 hrs by SRB assay; format: toxicity, cell-based
MCF7 [14] = experiment: Inhibition of mitochondrial respiration in human MCF7 cells assessed as reduction in oxygen consumption rate at 20 uM incubated for 15 mins in presence of complex II; format: functional, cell-based
MCF7 [15] = experiment: Induction of cell cycle arrest in human MCF7 cells assessed as accumulation of cells at G0/G1 phase at 5 to 7 uM measured after 24 hrs by PI staining based flow cytometry analysis; format: functional; details: dose 5-7 µM
MCF7 [16] = experiment: Inhibition of mitochondrial induced ROS production in human MCF7 cells assessed as reduction in H2O2 production rate at 20 uM incubated for 15 mins in presence of complex II by Amplex ultra red and horseradish peroxidase based fluorescence assay; format: functional, cell-based

Structure (SMILES) | growth at 10 µM (MDA-MB-468 [1]) | GI50 (T47D [2]) | growth at 10 µM (MCF7 [3]) | GI50 (MCF7 [4]) | GI50 (MDA-MB-468 [5]) | inhibition (Aurora kinase B [6]) | growth at 10 µM (T47D [7]) | further results
COc1ccc(S(=O)(=O)Nc2ccc(-c3ccc4c(c3)NC(=O)/C4=C\c3ccc[nH]3)cc2)cc1OC | -56.2% | 0.0285 µM | -39% | 0.0477 µM | 0.0309 µM | 33% | -21% | –
CC(=O)Nc1ccc(S(=O)(=O)Nc2ccc(-c3ccc4c(c3)NC(=O)/C4=C\c3ccc[nH]3)cc2)cc1 | -7.1% | – | 14.3% | – | – | 46% | 20.7% | –
O=C1Nc2cc(-c3ccc(NS(=O)(=O)c4cccc(Cl)c4)cc3)ccc2/C1=C/c1ccc[nH]1 | -29.3% | – | -6.08% | – | – | 43% | 12.1% | –
O=C1Nc2cc(-c3ccc(NS(=O)(=O)c4ccccc4)cc3)ccc2/C1=C/c1ccc[nH]1 | – | – | – | – | – | – | – | inhibition (Aurora kinase B [8]): 66%
O=C1Nc2cc(-c3ccc(O)cc3)ccc2/C1=C/c1ccc[nH]1 | – | – | – | – | – | – | – | Ki (Aurora kinase B [9]): 0.0199 µM
O=C1Nc2cc(-c3ccc(NS(=O)(=O)c4ccc(C(F)(F)F)cc4)cc3)ccc2/C1=C/c1ccc[nH]1 | -26.2% | 0.23 µM | 0.78% | 0.0818 µM | 0.0311 µM | 18% | 18.1% | –
O=C(Nc1ccc(-c2ccc3c(c2)NC(=O)/C3=C\c2ccc[nH]2)cc1)NC1CC1 | – | – | – | – | – | – | – | IC50 (Aurora kinase B [10]): 0.0105 µM
O=C1Nc2cc(-c3ccc(NS(=O)(=O)c4cccc(Br)c4)cc3)ccc2/C1=C/c1ccc[nH]1 | -44% | 0.0417 µM | -18.4% | 0.0302 µM | 0.0286 µM | 38% | 15.6% | –
O=C1Nc2cc(-c3ccc(NS(=O)(=O)c4ccc([N+](=O)[O-])cc4)cc3)ccc2/C1=C/c1ccc[nH]1 | -29.6% | 4.77 µM | -23.6% | 1.73 µM | 0.778 µM | 49% | 15.9% | –
O=C1Nc2cc(-c3ccc(NS(=O)(=O)c4ccc(Br)cc4)cc3)ccc2/C1=C/c1ccc[nH]1 | -66.9% | 0.0613 µM | -77.4% | 0.0316 µM | 0.0254 µM | 32% | 9.33% | –
CCN(CC)CCNC(=O)c1c(C)[nH]c(/C=C2\C(=O)Nc3cc(-c4ccc(NS(=O)(=O)c5ccc(F)c(Cl)c5)cc4)ccc32)c1C | -90.5% | – | -85.2% | – | – | 90% | -49.1% | inhibition (MCF7 [11]): Active; inhibition (MCF7 [12]): Active; Activity (H9c2): Non-Toxic; inhibition (MCF7 [13]): inactive; Activity (BNL): Non-Toxic; inhibition (MCF7 [14]): Active; Activity (MCF7 [15]): Active; inhibition (MCF7 [16]): Active
Cc1[nH]c(/C=C2\C(=O)Nc3cc(-c4ccc(NS(=O)(=O)c5ccc(F)c(Cl)c5)cc4)ccc32)c(C)c1NS(C)(=O)=O | 8.19% | – | 4.18% | – | – | 53% | 17.9% | –
Cc1ccc(S(=O)(=O)Nc2ccc(-c3ccc4c(c3)NC(=O)/C4=C\c3ccc[nH]3)cc2)cc1 | -25.8% | – | 3.35% | – | – | 23% | 18.8% | –
O=C1Nc2cc(-c3ccc(NS(=O)(=O)c4ccc(-c5ccccc5)cc4)cc3)ccc2/C1=C/c1ccc[nH]1 | -52.5% | 0.136 µM | -25.2% | 0.0746 µM | 0.0402 µM | 20% | 3.17% | –
O=C1Nc2cc(-c3ccc(NS(=O)(=O)c4ccc5ccccc5c4)cc3)ccc2/C1=C/c1ccc[nH]1 | -80.8% | 0.0471 µM | -51.9% | 0.0336 µM | 0.0254 µM | 20% | -16.7% | –
